Key:
[1] = target: TRPML1 (Homo sapiens, UniProt Q9GZU1); assay: Calcium flux in HEK293 overexpressing TRPML1 plasma membrane variant (FLIPR, Calcium 6 dye); type: cell-based; settings: HEK293/TRPML1-PM clone A5 cells; 4-parameter logistic fit; read-out: TRPML1 calcium flux (FLIPR) dose response: EC50
Description: Example B1. Calcium Flux in HEK293 Overexpressing TRPML1 Plasma Membrane Variant—Calcium 6 Dye
Cells: HEK293/TRPML1-PM clone A5, clonal cell line containing mutant TRPML1 (both N- and C-terminal dileucine targeting motifs deleted) that localizes to the plasma membrane
Plates: Perkin Elmer Viewplate cat. #6007460, black optically clear, tissue culture treated 384-well plate
Calcium dye: Molecular Devices FLIPR Calcium 6 Assay Kit, cat. #R8190 or Fluo-4 Direct from Thermo Fisher, cat. #F10471
Tips: Molecular Devices 384-well FLIPR Tetra black tips, cat. #9000-0764 Example B1.2 Method
HEK293/TRPML1-PM clone A5 cells were trypsinized from flasks, counted, then diluted in media to 15,000 cells per 25 μL, and seeded into a black, 384-well viewplate, and cultured overnight.
One vial of calcium 6 dye was diluted with 10 mL of assay buffer (HBSS+20 mM HEPES pH 7.4) and 25 μL of the dilution was added per well to the cells.
After incubating for 2 hours at 37° C., the plate was moved to the FLIPR in the read position.
The compounds were diluted in EMEM with 0.125% FBS to 5× concentration and loaded in a 384-well plate according to the desired plate map for the assay, including DMSO alone and carbachol controls, then the plate was moved to the FLIPR in the source 2 position.
A box of tips was placed in the source 1 position within the FLIPR to complete the assay set up.
Once the run was started, an initial baseline fluorescent measurement was performed for 10 seconds (470-495 nm excitation and 515-575 nm emission) prior to adding the compounds.
12.5 μL of 5× test compound, DMSO alone, or carbachol were added via the FLIPR and real-time fluorescence measurements were performed for an additional 170 seconds with 1 read per second.
The data was normalized to baseline by calculating maximum fluorescence minus minimum fluorescence and plotted as response (fold) over the baseline versus log ([…] concentration). The EC50 was determined using a 4-parameter logistic curve fit in Graphpad Prism 9.

[2] = test system: TFEB; assay: TFEB translocation assay in HeLa cells (nuclear to cytoplasmic TFEB ratio, high-content imaging); type: cell-based; settings: Homo sapiens, 1.5 h, 90 mins incubation at 37° C., ratio of nuclear to cytoplasmic TFEB
Experimental: Example B2. TFEB Translocation Assay
Rabbit TFEB antibody, Cell Signaling Technology #4240S
PFA 16% MeOH-free, Election Microscopy Sciences #50-980-487
HCS CellMask Deep Red, ThermoFisher Scientific #H32721
Plates: Perkin Elmer Phenoplate #605730 black optically clear, tissue culture treated 384-well plate
Example B2.2 Method, Day 1: Cells Seeded in 384WP
Cells were seeded in the afternoon. The outer one row of the plate was not used to avoid outer well edge effects.
HeLa cells were detached using trypsin, and the cells were counted using a cell counter.
4000 HeLa cells were seeded per well in […] growth media (DMEM with 10% FBS, 1 mM sodium pyruvate and Pen-Strep).
Example B2.3 Method, Day 2: Assay with TRPML1 Compounds+Staining
Compounds were added to cells using a Tecan D300e dispenser.
Cells were incubated for 90 mins at 37° C. with the compounds (compound range: 80 nM-[…] (2× step dilution—8 dilution steps, 3 replicates per condition)
The cells were fixed by adding 16.5 μL of 16% PFA (4% final) and incubating for 15 min at room temperature.
The cells were washed with 3× in PBS-TX (PBS+0.1% Triton X-100)−1×100 μL followed by 2×50 μL.
The cells were blocked and permeabilized in 30 μL of blocking buffer (PBS-TX+5% goat serum) for 1 h.
The cells were incubated with TFEB antibody (1:200, CST 4240S) in 30 μL blocking buffer overnight at 4° C. The plates were kept damp to avoid evaporation.
Example B2.4 Method, Day 3: Staining+Imaging
The cells were washed 3× in PBS-TX—3×100 μL with a Biotek EL406 washer.
The cells were incubated with Goat anti-Rb Alexa-Fluor 488 (1:2000), cell mask (1:10,000) and Hoechst (1:10,000) in 30 μL blocking buffer for 1 h at room temperature. The solution was dispensed using a 5 μL peristaltic cassette (EL406).
The cells were washed 3× in PBS-TX—3×100 μL with a EL406 washer, then […] PBS was dispensed using a 5 μL peristaltic cassette (EL406).
The cells were imaged on an Operetta CLS High-content imaging system using a 20× water immersion objective (NA 1.0) the same day.
Image analysis was performed using Harmony V4.9 (Perkin Elmer). Briefly, nuclei were segmented from background-corrected images using Hoechst intensity, and cell body segmented using HCS CellMask DeepRed. A sliding parabola filter was applied to the AlexaFluor 488 channel (TFEB), before sum pixel intensity in the nuclear and cytoplasmic regions was calculated. A ratio of nuclear to cytoplasmic TFEB was used to define TFEB translocation from the cytosolic to nuclear compartment. The EC50 values derived by fitting the data to a sigmoidal dose response curve using Prism 9 (Graphpad).

TRPML1, sequence (Q9GZU1 17-572 limits assumed): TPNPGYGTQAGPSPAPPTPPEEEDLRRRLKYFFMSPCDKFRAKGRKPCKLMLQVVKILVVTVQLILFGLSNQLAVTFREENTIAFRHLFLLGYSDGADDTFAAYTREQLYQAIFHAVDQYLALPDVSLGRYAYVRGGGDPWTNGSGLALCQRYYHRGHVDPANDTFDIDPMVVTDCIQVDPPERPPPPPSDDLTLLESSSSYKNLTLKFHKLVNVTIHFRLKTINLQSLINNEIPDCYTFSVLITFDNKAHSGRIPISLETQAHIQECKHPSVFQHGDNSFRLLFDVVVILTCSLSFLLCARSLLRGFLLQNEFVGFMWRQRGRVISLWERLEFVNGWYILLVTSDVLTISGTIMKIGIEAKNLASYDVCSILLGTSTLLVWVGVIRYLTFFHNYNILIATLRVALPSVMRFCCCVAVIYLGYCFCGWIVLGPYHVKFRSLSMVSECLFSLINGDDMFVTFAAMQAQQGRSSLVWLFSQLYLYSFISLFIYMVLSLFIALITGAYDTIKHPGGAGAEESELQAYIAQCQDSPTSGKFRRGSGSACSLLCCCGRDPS

| SMILES | EC50 [1] | EC50 ([2]; HeLa) | EC50 [2] |
| --- | --- | --- | --- |
| CN(CC1(F)CCCCC1)c1ccccc1NS(=O)(=O)c1ccc(S(=O)(=O)N(C)C)cc1 [Compound 96, N1-(2-(((1-fluorocyclohexyl)methyl)(methyl)amino)phenyl)-N4,N4-dimethylbenzene-1,4-disulfonamide] | 247 nM |  | 140 nM |
| CN(Cc1cncs1)c1c(F)cccc1NS(=O)(=O)c1ccc(S(=O)(=O)N(C)C)cc1 [Compound 70, N1-(3-Fluoro-2-(methyl(thiazol-5-ylmethyl)amino)phenyl)-N4,N4-dimethylbenzene-1,4-disulfonamide] | 1340 nM | 6960 nM |  |
| CN(c1c(C#N)cccc1NS(=O)(=O)c1ccc(S(=O)(=O)N(C)C)cc1)C1CCCCC1 [Compound 91, N1-(3-cyano-2-(cyclohexyl(methyl)amino)phenyl)-N4,N4-dimethylbenzene-1,4-disulfonamide] | 77.2 nM | 199 nM |  |
| [2H]C([2H])([2H])N(c1ccccc1NS(=O)(=O)c1ccc(S(=O)(=O)N(C)C)cc1)C1CCCCC1 [Compound 102, N1-(2-(cyclohexyl(methyl-d3)amino)phenyl)-N4,N4-dimethylbenzene-1,4-disulfonamide] | 412 nM | 388 nM |  |
| CN(c1ccc(C(F)(F)F)cc1NS(=O)(=O)c1ccc(S(=O)(=O)N(C)C)cc1)C1CCCCC1 [Compound 110, N1-(2-(cyclohexyl(methyl)amino)-5-(trifluoromethyl)phenyl)-N4,N4-dimethylbenzene-1,4-disulfonamide] | 256 nM |  | 246 nM |
| CN(CC1CCC1)c1c(Cl)cccc1NS(=O)(=O)c1ccc(S(=O)(=O)N(C)C)cc1 [Compound 69, N1-(3-chloro-2-((cyclobutylmethyl)(methyl)amino)phenyl)-N4,N4-dimethylbenzene-1,4-disulfonamide] | 421 nM | 339 nM |  |
| CN(Cc1cscn1)c1c(Cl)cccc1NS(=O)(=O)c1ccc(S(=O)(=O)N(C)C)cc1 [Compound 64, N1-(3-chloro-2-(methyl(thiazol-4-ylmethyl)amino)phenyl)-N4,N4-dimethylbenzene-1,4-disulfonamide] | 453 nM | 1390 nM |  |
| CN(c1ccccc1NS(=O)(=O)c1ccc(S(=O)(=O)N(C)C)cc1)C1CCCC(F)(F)C1 (centres unmarked) [Compound 104, N1-(2-((3,3-difluorocyclohexyl) (methyl)amino)phenyl)-N4,N4-dimethylbenzene-1,4-disulfonamide] | 715 nM | 573 nM |  |
| Cc1cccc(NS(=O)(=O)c2ccc(S(=O)(=O)N(C)C)cc2)c1N(C)Cc1cncs1 [Compound 72, N1,N1-Dimethyl-N4-(3-methyl-2-(methyl(thiazol-5-ylmethyl)amino)phenyl)benzene-1,4-disulfonamide] | 572 nM | 1760 nM |  |
| CN(c1ccc(C#N)cc1NS(=O)(=O)c1ccc(S(=O)(=O)N(C)C)cc1)C1CCCCC1 [Compound 89, N1-(5-cyano-2-(cyclohexyl(methyl)amino)phenyl)-N4,N4-dimethylbenzene-1,4-disulfonamide] | 681 nM |  | 2400 nM |

Second part, led by results:

| EC50 [1] | EC50 ([2]; HeLa) | SMILES | EC50 [2] |
| --- | --- | --- | --- |
| 1140 nM | > 9900 nM | CN(c1ccccc1NS(=O)(=O)c1ccc(S(=O)(=O)N(C)C)cc1)C1CCOC1 (centres unmarked) [Compound 18, N1,N1-dimethyl-N4-(2-(methyl(tetrahydrofuran-3-yl)amino)phenyl)benzene-1,4-disulfonamide] |  |
| 190 nM | 450 nM | CN(c1ccccc1NS(=O)(=O)c1ccc(S(=O)(=O)N(C)C)cc1)C1(C)CCCCC1 [Compound 17, N1,N1-dimethyl-N4-(2-(methyl(1-methylcyclohexyl)amino)phenyl)benzene-1,4-disulfonamide] |  |
| 410 nM | 200 nM | CN(CC1CCCCC1)c1ccccc1NS(=O)(=O)c1ccc(S(=O)(=O)N(C)C)cc1 [Compound 23, N1-(2-((cyclohexylmethyl)(methyl)amino)phenyl)-N4,N4-dimethylbenzene-1,4-disulfonamide] |  |
| 857 nM | 649 nM | CN(CC1(F)CCCC1)c1ccccc1NS(=O)(=O)c1ccc(S(=O)(=O)N(C)C)cc1 [Compound 93, N1-(2-(((1-fluorocyclopentyl)methyl)(methyl)amino)phenyl)-N4,N4-dimethylbenzene-1,4-disulfonamide] |  |
| 1560 nM | 2030 nM | CN(CC1CC1)c1ccccc1NS(=O)(=O)c1ccc(S(=O)(=O)N(C)C)cc1 [Compound 14, N1-(2-((cyclopropylmethyl) (methyl)amino)phenyl)-N4,N4-dimethylbenzene-1,4-disulfonamide] |  |
| 280 nM | 1870 nM | CN(c1ccccc1NS(=O)(=O)c1ccc(S(=O)(=O)N(C)C)cc1)C1CCCC1 [Compound 24, N1-(2-(cyclopentyl(methyl)amino)phenyl)-N4,N4-dimethylbenzene-1,4-disulfonamide] |  |
| 1100 nM | 758 nM | CN(c1ccccc1NS(=O)(=O)c1ccc(S(=O)(=O)N(C)C)cc1)C12CC(C)(C1)C2 [Compound 115, N1,N1-dimethyl-N4-(2-(methyl(3-methylbicyclo[1.1.1]pentan-1-yl)amino)phenyl) benzene-1,4-disulfonamide] |  |
| 360 nM | 1170 nM | CN(C)S(=O)(=O)c1ccc(S(=O)(=O)Nc2ccccc2N(C)[C@H]2CC[C@@H](C)CC2)cc1 [Compound 30, N1,N1-dimethyl-N4-(2-(methyl((1s,4s)-4-methylcyclohexyl)amino)phenyl)benzene-1,4-disulfonamide] |  |
| 300 nM | 830 nM | CN(Cc1ccccc1)c1ccccc1NS(=O)(=O)c1ccc(S(=O)(=O)N(C)C)cc1 [Compound 26, N1-(2-(benzyl(methyl)amino)phenyl)-N4,N4-dimethylbenzene-1,4-disulfonamide] |  |
| 242 nM | 676 nM | CCCN(C)c1c(Cl)cccc1NS(=O)(=O)c1ccc(S(=O)(=O)N(C)C)cc1 [Compound 74, N1-(3-chloro-2-(methyl(propyl)amino)phenyl)-N4,N4-dimethylbenzene-1,4-disulfonamide] |  |
| 870 nM | 2340 nM | CN(CC1(C)CCOCC1)c1ccccc1NS(=O)(=O)c1ccc(S(=O)(=O)N(C)C)cc1 [Compound 10, N1,N1-dimethyl-N4-(2-(methyl((4-methyltetrahydro-2H-pyran-4-yl)methyl)amino)phenyl)benzene-1,4-disulfonamide] |  |
| 2030 nM |  | CN(c1ccccc1NS(=O)(=O)c1ccc(S(=O)(=O)N(C)C)cc1)C1CCOCC1 [Compound 19, N1,N1-dimethyl-N4-(2-(methyl(tetrahydro-2H-pyran-4-yl)amino)phenyl)benzene-1,4-disulfonamide] |  |
| > 10000 nM |  | CN(C)CCN(C)c1ccccc1NS(=O)(=O)c1ccc(S(=O)(=O)N(C)C)cc1 [Compound 54, N1-(2-((2-(dimethylamino)ethyl)(methyl)amino)phenyl)-N4,N4-dimethylbenzene-1,4-disulfonamide] |  |

From patent publication US20250340510A1, “Substituted Phenylbenzenesulfonamide Derivatives and Uses Thereof” (Nine Square Therapeutics Corporation, priority 2022, published 2025)
